Data from ChEMBL document CHEMBL3885881, “DrugMatrix”.

Organism: Rattus norvegicus
Assay: DrugMatrix - Regimen: Daily Repeat
Type: toxicity, organism-based, Sprague-Dawley
Parameters: regimen Daily Repeat, gender Male, age 6-8 weeks
Conditions: in vivo, po, route oral GAVAGE, vehicle .5 % CMC; for ABSOLUTE BASOPHIL / ABSOLUTE EOSINOPHIL / ABSOLUTE LYMPHOCYTE / ABSOLUTE MONOCYTE / ABSOLUTE SEGMENTED NEUTROPHIL / BASOPHIL / EOSINOPHIL / ERYTHROCYTE COUNT / HEMATOCRIT / HEMOGLOBIN / LEUKOCYTE COUNT / LYMPHOCYTE / MEAN CORPUSCULAR HEMOGLOBIN / MEAN CORPUSCULAR HEMOGLOBIN CONCENTRATION / MEAN CORPUSCULAR VOLUME / MONOCYTE / NEUTROPHIL / NUCLEATED RED BLOOD CELLS / PLATELET COUNT: tissue Blood; for ALANINE AMINOTRANSFERASE / ALBUMIN / ALKALINE PHOSPHATASE / ASPARTATE AMINOTRANSFERASE / BLOOD UREA NITROGEN / CARBON DIOXIDE / CHLORIDE / CHOLESTEROL / CREATINE PHOSPHOKINASE / CREATININE / GLUCOSE / LACTATE DEHYDROGENASE / LIPASE / PHOSPHORUS / POTASSIUM / SODIUM / TOTAL BILIRUBIN / TOTAL PROTEIN / URIC ACID: tissue Plasma
[1] = 500 mg/kg, 120 h, dose level Low, time 5 day
[2] = 1500 mg/kg, 72 h, dose level High, time 3 day
[3] = 1500 mg/kg, 120 h, dose level High, time 5 day

## CC(C)(Sc1cc(C(C)(C)C)c(O)c(C(C)(C)C)c1)Sc1cc(C(C)(C)C)c(O)c(C(C)(C)C)c1 [PROBUCOL]
[1]
  ABSOLUTE BASOPHIL: 0 CELLS/uL
  ABSOLUTE EOSINOPHIL: 211 CELLS/uL
  ABSOLUTE LYMPHOCYTE: 10866.33 CELLS/uL
  ABSOLUTE MONOCYTE: 0 CELLS/uL
  ABSOLUTE SEGMENTED NEUTROPHIL: 1022.67 CELLS/uL
  BASOPHIL: 0%
  EOSINOPHIL: 1.67%
  ERYTHROCYTE COUNT: 5.74 x10E6/uL
  HEMATOCRIT: 36.53%
  HEMOGLOBIN: 13.67 G/DL
  LEUKOCYTE COUNT: 12.1 x10E3/uL
  LYMPHOCYTE: 90%
  MEAN CORPUSCULAR HEMOGLOBIN: 23.87 pg
  MEAN CORPUSCULAR HEMOGLOBIN CONCENTRATION: 37.43 G/DL
  MEAN CORPUSCULAR VOLUME: 63.7 fL
  MONOCYTE: 0%
  NEUTROPHIL: 8.33%
  NUCLEATED RED BLOOD CELLS: 0 /100WBC
  PLATELET COUNT: 1159.33 x10E3/uL
  ALANINE AMINOTRANSFERASE: 45.67 u/L
  ALBUMIN: 4.33 G/DL
  ALKALINE PHOSPHATASE: 362 u/L
  ASPARTATE AMINOTRANSFERASE: 76.33 u/L
  BLOOD UREA NITROGEN: 15.33 mg/dL
  CARBON DIOXIDE: 25.67 mmol/L
  CHLORIDE: 102 MEQ/L
  CHOLESTEROL: 70.33 mg/dL
  CREATINE PHOSPHOKINASE: 180.67 u/L
  CREATININE: 0.2 mg/dL
  GLUCOSE: 163.67 mg/dL
  LACTATE DEHYDROGENASE: 162.67 u/L
  LIPASE: 9 u/L
  PHOSPHORUS: 11.63 mg/dL
  POTASSIUM: 6.21 MEQ/L
  SODIUM: 144 MEQ/L
  TOTAL BILIRUBIN: 0.2 mg/dL
  TOTAL PROTEIN: 6.1 G/DL
  URIC ACID: 1.83 mg/dL
[2]
  ABSOLUTE BASOPHIL: 0 CELLS/uL
  ABSOLUTE EOSINOPHIL: 183 CELLS/uL
  ABSOLUTE LYMPHOCYTE: 12835.33 CELLS/uL
  ABSOLUTE MONOCYTE: 38 CELLS/uL
  ABSOLUTE SEGMENTED NEUTROPHIL: 1443.67 CELLS/uL
  BASOPHIL: 0%
  EOSINOPHIL: 1.33%
  ERYTHROCYTE COUNT: 5.49 x10E6/uL
  HEMATOCRIT: 34.77%
  HEMOGLOBIN: 13.37 G/DL
  LEUKOCYTE COUNT: 14.5 x10E3/uL
  LYMPHOCYTE: 88.33%
  MEAN CORPUSCULAR HEMOGLOBIN: 24.37 pg
  MEAN CORPUSCULAR HEMOGLOBIN CONCENTRATION: 38.47 G/DL
  MEAN CORPUSCULAR VOLUME: 63.33 fL
  MONOCYTE: 0.33%
  NEUTROPHIL: 10%
  NUCLEATED RED BLOOD CELLS: 0 /100WBC
  PLATELET COUNT: 1374.67 x10E3/uL
  ALANINE AMINOTRANSFERASE: 49.33 u/L
  ALBUMIN: 4.2 G/DL
  ALKALINE PHOSPHATASE: 412 u/L
  ASPARTATE AMINOTRANSFERASE: 77.33 u/L
  BLOOD UREA NITROGEN: 14.67 mg/dL
  CARBON DIOXIDE: 27.33 mmol/L
  CHLORIDE: 100 MEQ/L
  CHOLESTEROL: 65.67 mg/dL
  CREATINE PHOSPHOKINASE: 249.33 u/L
  CREATININE: 0.19 mg/dL
  GLUCOSE: 153.67 mg/dL
  LACTATE DEHYDROGENASE: 144 u/L
  LIPASE: 9 u/L
  PHOSPHORUS: 12.87 mg/dL
  POTASSIUM: 7.14 MEQ/L
  SODIUM: 143.67 MEQ/L
  TOTAL BILIRUBIN: 0.17 mg/dL
  TOTAL PROTEIN: 5.83 G/DL
  URIC ACID: 1.67 mg/dL
[3]
  ABSOLUTE BASOPHIL: 0 CELLS/uL
  ABSOLUTE EOSINOPHIL: 76.67 CELLS/uL
  ABSOLUTE LYMPHOCYTE: 11157.33 CELLS/uL
  ABSOLUTE MONOCYTE: 39 CELLS/uL
  ABSOLUTE SEGMENTED NEUTROPHIL: 1027 CELLS/uL
  BASOPHIL: 0%
  EOSINOPHIL: 0.67%
  ERYTHROCYTE COUNT: 5.53 x10E6/uL
  HEMATOCRIT: 34.87%
  HEMOGLOBIN: 13.07 G/DL
  LEUKOCYTE COUNT: 12.3 x10E3/uL
  LYMPHOCYTE: 90.67%
  MEAN CORPUSCULAR HEMOGLOBIN: 23.63 pg
  MEAN CORPUSCULAR HEMOGLOBIN CONCENTRATION: 37.5 G/DL
  MEAN CORPUSCULAR VOLUME: 63.03 fL
  MONOCYTE: 0.33%
  NEUTROPHIL: 8.33%
  NUCLEATED RED BLOOD CELLS: 0 /100WBC
  PLATELET COUNT: 1307 x10E3/uL
  ALANINE AMINOTRANSFERASE: 47.67 u/L
  ALBUMIN: 4.33 G/DL
  ALKALINE PHOSPHATASE: 423.67 u/L
  ASPARTATE AMINOTRANSFERASE: 74 u/L
  BLOOD UREA NITROGEN: 15.33 mg/dL
  CARBON DIOXIDE: 26.33 mmol/L
  CHLORIDE: 102.33 MEQ/L
  CHOLESTEROL: 63 mg/dL
  CREATINE PHOSPHOKINASE: 227.67 u/L
  CREATININE: 0.2 mg/dL
  GLUCOSE: 158.67 mg/dL
  LACTATE DEHYDROGENASE: 174.33 u/L
  LIPASE: 8.33 u/L
  PHOSPHORUS: 12.1 mg/dL
  POTASSIUM: 6.79 MEQ/L
  SODIUM: 145.27 MEQ/L
  TOTAL BILIRUBIN: 0.2 mg/dL
  TOTAL PROTEIN: 6.13 G/DL
  URIC ACID: 1.63 mg/dL
